According to patent US20150051252A1, “COMPOUNDS FOR USE IN THE TREATMENT OF NEUROBLASTOMA, EWING'S SARCOMA OR RHABDOMYOSARCOMA” (priority 2012, published 2015):

Tests used:
Type in all cases: cell-based
[1] = system: SJRH30 rhabdomyosarcoma cell line; assay: Cell line sensitivity (Cell Titer Glo), SJRH30; settings: SJRH30 cells, 72 h
Method: (§1) Cell culture: Cell lines are obtained from commercial sources including ATCC and DSMZ. All cell lines tested are cultured in RPMI or DMEM plus 10% FBS (Invitrogen) as supplier recommended. Cell lines are cultured in T-175 or 3 layer T-175 “triple” flasks using standard tissue culture techniques that are frequently carried out with a robot (CompacT—The Automation Partnership). All cell lines are thawed from frozen stock, grown at 37 C 5% CO2. Adherent lines are dislodged using TrypLE (Invitrogen), are expanded through at least 1 passage of 1:3 dilution and usually 2 to 3 passages before they are added to assay micro-titer plates. Cell count and viability are measured using Trypan dye exclusion with a ViCell counter (Beckman-Coulture). All cell lines are tested for and shown to be free of Mycoplasma using a PCR detection (http://www.radil.missouri.edu). […]
(§2) All assays are automated and are performed with an ultra-high throughput screening system built by the Genomics Institute of the Novartis Research Foundation (GNF Systems; http://www.gnfsystems.com/). […] Cell Titer Glo (Promega), which measures the amount of ATP in the well, is added and luminescence is read on a ViewLux plate reader (Perkin Elmer). […]

[2] = system: SK-N-DZ neuroblastoma cell line; assay: Cell line sensitivity (Cell Titer Glo), SK-N-DZ; settings: SK-N-DZ cells, 72 h
Method: as §1, §2

[3] = system: TE 125.T rhabdomyosarcoma cell line; assay: Cell line sensitivity (Cell Titer Glo), TE 125.T; settings: TE 125.T cells, 72 h, maximum observed response; 0% = vehicle, −100% = MG132 1 μM
Method: as §1, §2

[4] = system: SK-N-BE(2) neuroblastoma cell line; assay: Cell line sensitivity (Cell Titer Glo), SK-N-BE(2); settings: SK-N-BE(2) cells, 72 h, maximum observed response; 0% = vehicle, −100% = MG132 1 μM
Method: as §1, §2

[5] = system: TE 617.T rhabdomyosarcoma cell line; assay: Cell line sensitivity (Cell Titer Glo), TE 617.T; settings: TE 617.T cells, 72 h
Method: as §1, §2

[6] = system: KP-N-SI9s neuroblastoma cell line; assay: Cell line sensitivity (Cell Titer Glo), KP-N-SI9s; settings: 72 h
Method: as §1, §2

[7] = system: RD rhabdomyosarcoma cell line; assay: Cell line sensitivity (Cell Titer Glo), RD; settings: RD cells, 72 h
Method: as §1, §2

[8] = system: TC-71 Ewing's Sarcoma cell line; assay: Cell line sensitivity (Cell Titer Glo), TC-71; settings: TC-71 cells, 72 h
Method: as §1, §2

[9] = system: G-401 (Rhabdoid) cell line; assay: Cell line sensitivity (Cell Titer Glo), G-401; settings: G-401 cells, 72 h, maximum observed response; 0% = vehicle, −100% = MG132 1 μM
Method: as §1, §2

[10] = system: SK-N-AS neuroblastoma cell line; assay: Cell line sensitivity (Cell Titer Glo), SK-N-AS; settings: SK-N-AS cells, 72 h, maximum observed response; 0% = vehicle, −100% = MG132 1 μM
Method: as §1, §2

[11] = system: Hs 822.T Ewing's Sarcoma cell line; assay: Cell line sensitivity (Cell Titer Glo), Hs 822.T; settings: Hs 822.T cells, 72 h
Method: as §1, §2

[12] = system: SK-ES-1 Ewing's Sarcoma cell line; assay: Cell line sensitivity (Cell Titer Glo), SK-ES-1; settings: SK-ES-1 cells, 72 h
Method: as §1, §2

[13] = system: SK-N-FI neuroblastoma cell line; assay: Cell line sensitivity (Cell Titer Glo), SK-N-FI; settings: SK-N-FI cells, 72 h
Method: as §1, §2

[14] = system: RH-41 rhabdomyosarcoma cell line; assay: Cell line sensitivity (Cell Titer Glo), RH-41; settings: RH-41 cells, 72 h
Method: as §1, §2

[15] = system: G-402 (Leiomyoblastoma) cell line; assay: Cell line sensitivity (Cell Titer Glo), G-402; settings: G-402 cells, 72 h, maximum observed response; 0% = vehicle, −100% = MG132 1 μM
Method: as §1, §2

[16] = system: A-673 rhabdomyosarcoma cell line; assay: Cell line sensitivity (Cell Titer Glo), A-673; settings: A-673 cells, 72 h
Method: as §1, §2

[17] = system: SK-N-SH neuroblastoma cell line; assay: Cell line sensitivity (Cell Titer Glo), SK-N-SH; settings: SK-N-SH cells, 72 h
Method: as §1, §2

[18] = system: MHH-ES-1 Ewing's Sarcoma cell line; assay: Cell line sensitivity (Cell Titer Glo), MHH-ES-1; settings: 72 h
Method: as §1, §2

[19] = system: SIMA neuroblastoma cell line; assay: Cell line sensitivity (Cell Titer Glo), SIMA; settings: SIMA cells, 72 h, maximum observed response; 0% = vehicle, −100% = MG132 1 μM
Method: as §1, §2

[20] = system: CHP-212 neuroblastoma cell line; assay: Cell line sensitivity (Cell Titer Glo), CHP-212; settings: CHP-212 cells, 72 h
Method: as §1, §2

[21] = system: KELLY neuroblastoma cell line; assay: Cell line sensitivity (Cell Titer Glo), KELLY; settings: KELLY cells, 72 h, maximum observed response; 0% = vehicle, −100% = MG132 1 μM
Method: as §1, §2

[22] = system: Hs 729 rhabdomyosarcoma cell line; assay: Cell line sensitivity (Cell Titer Glo), Hs 729; settings: Hs 729 cells, 72 h, maximum observed response; 0% = vehicle, −100% = MG132 1 μM
Method: as §1, §2

[23] = system: KYM-1 rhabdomyosarcoma cell line; assay: Cell line sensitivity (Cell Titer Glo), KYM-1; settings: KYM-1 cells, 72 h, maximum observed response; 0% = vehicle, −100% = MG132 1 μM
Method: as §1, §2

[24] = system: IMR-32 neuroblastoma cell line; assay: Cell line sensitivity (Cell Titer Glo), IMR-32; settings: IMR-32 cells, 72 h, maximum observed response; 0% = vehicle, −100% = MG132 1 μM
Method: as §1, §2

[25] = Cell Titer Glo, inflection point, 0.0025 to 8 uM, read-out: COMPOUND I EC50
[26] = maximum observed response, 0% = vehicle, −100% = MG132 1 μM

## Cc1nc(NC(=O)N2CCC[C@H]2C(N)=O)sc1-c1ccnc(C(C)(C)C(F)(F)F)c1 [COMPOUND I, (S)-Pyrrolidine-1,2-dicarboxylic acid 2-amide 1-({4-methyl-5-[2-(2,2,2-trifluoro-1,1-dimethyl-ethyl)-pyridin-4-yl]-thiazol-2-yl}-amide)]
[1]; [25]
  EC50: 2800 nM
[1]; [26]
  COMPOUND I Amax (% inhibition): −56.5%
[2]; [25]
  EC50: 5300 nM
[2]; [26]
  COMPOUND I Amax (% inhibition): −42.4%
[3]
  COMPOUND I Amax (% inhibition): −49.8%
[4]
  COMPOUND I Amax (% inhibition): −8.7%
[5]; [25]
  EC50: 3800 nM
[5]; [26]
  COMPOUND I Amax (% inhibition): −55.2%
[6]; KP-N-SI9s cells (KRAS mutation), Cell Titer Glo, inflection point, 0.0025 to 8 uM, read-out: COMPOUND I EC50
  EC50: 600 nM
[6]; KP-N-SI9s cells, maximum observed response, 0% = vehicle, −100% = MG132 1 μM
  COMPOUND I Amax (% inhibition): −54.2%
[7]; [25]
  EC50: 3300 nM
[7]; [26]
  COMPOUND I Amax (% inhibition): −43.2%
[8]; [26]
  COMPOUND I Amax (% inhibition): −5.4%
[8]; read-out: COMPOUND I EC50, Cell Titer Glo, inflection point, 0.0025 to 8 uM, heading: COMPOUND I EC50
  EC50: > 8000 nM
[9]
  COMPOUND I Amax (% inhibition): −46.6%
[10]
  COMPOUND I Amax (% inhibition): −11.6%
[11]; [25]
  EC50: 1500 nM
[11]; [26]
  COMPOUND I Amax (% inhibition): −31.6%
[12]; [25]
  EC50: 500 nM
[12]; [26]
  COMPOUND I Amax (% inhibition): −51.7%
[13]; [25]
  EC50: 6100 nM
[13]; [26]
  COMPOUND I Amax (% inhibition): −55.6%
[14]; [25]
  EC50: 1600 nM
[14]; [26]
  COMPOUND I Amax (% inhibition): −85.4%
[15]
  COMPOUND I Amax (% inhibition): −26.4%
[16]; [25]
  EC50: 5700 nM
[16]; [26]
  COMPOUND I Amax (% inhibition): −56.2%
[17]; [25]
  EC50: 1600 nM
[17]; [26]
  COMPOUND I Amax (% inhibition): −44.6%
[18]; MHH-ES-1 cells (amplified PIK3CA), Cell Titer Glo, inflection point, 0.0025 to 8 uM, read-out: COMPOUND I EC50
  EC50: 2700 nM
[18]; MHH-ES-1 cells, maximum observed response, 0% = vehicle, −100% = MG132 1 μM
  COMPOUND I Amax (% inhibition): −79.2%
[19]
  COMPOUND I Amax (% inhibition): −42.0%
[20]; [25]
  EC50: 800 nM
[20]; [26]
  COMPOUND I Amax (% inhibition): −30.9%
[21]
  COMPOUND I Amax (% inhibition): −4.3%
[22]
  COMPOUND I Amax (% inhibition): −10.2%
[23]
  COMPOUND I Amax (% inhibition): −38.0%
[24]
  COMPOUND I Amax (% inhibition): −8.9%
